Test results as given in PMC9019100, “Development of NanoLuc-targeting protein degraders and a universal reporter system to benchmark tag-targeted degradation platforms” (Nature Communications, 2022).
“And” between values parts separate entries of the source, which are not always exact repeats. Equal values may be shown once. Read-outs that look alike come from different tables or passages of the source.

Legend:
caspase-8-FKBP^F36V = target: T1, caspase-8-FKBP^F36V (Homo sapiens, UniProt P62942, F37V); format: cell-based; conditions: 5 h
T1 construct: expressed in transfected cells; host or cells: MLKL-/-CASP8-/- HT29, constitutive expression
T1 sequence (P62942 whole entry F37V): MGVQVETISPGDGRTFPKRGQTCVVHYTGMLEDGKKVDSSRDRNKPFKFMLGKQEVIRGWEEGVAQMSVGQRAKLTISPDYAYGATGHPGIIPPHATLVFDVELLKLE

murine MLKL-FKBP^F36V = target: T2, murine MLKL-FKBP^F36V (Homo sapiens, UniProt P62942, F37V); format: cell-based; conditions: 31.2-500 nM, 5 h
T2 construct: expressed in transfected cells; host or cells: Mlkl-/- mouse dermal fibroblasts, doxycycline-inducible
T2 sequence (P62942 whole entry F37V): as above
Description: All timepoint experiments were performed as reverse timepoints in order to harvest all cells at the same time. At the indicated time points cells were lysed in NuPAGE LDS lysis buffer (Invitrogen) diluted to 1× in DISC lysis buffer (20 mM Tris-HCl pH7.5, 150 mM NaCl, 2 mM EDTA pH 8.0, 1% Triton X-100, 10% glycerol, H20)) supplemented with β-Mercaptoethanol (2%), protease and phosphatase inhibitors. Lysates were run through polypropylene columns (Pierce) to shred DNA. […] Membranes were blocked in 5% skim milk (Devondale) in TBS-T (TBS, 0.1% Tween-20) for 1 h prior to immunoblotting with primary antibodies overnight at 4 °C. Unless stated otherwise, all primary antibodies were diluted in TBS-T (TBS, 0.1% Tween-20) containing 5% BSA (Sigma A8022) and 0.04% sodium azide: HaloTag (1:1000, Promega; G9211), NanoLuc (1:500, Promega; N7000), β-actin (1:20,000, Sigma; A-1798), MLKL (1:1000, produced in-house; 3H1 clone)[39], FKBP (1:1000, R&D systems; 422513), caspase-8 (1:1000, Proteintech; 13423-1-AP), Histone H3 (1:1000, Abcam; ab10799), Cadherin (1:1000, Cell Signalling Technologies; 4068 T). Membranes were washed 3 × 5–10 min in TBS-T (TBS, 0.1% Tween-20) prior to the addition of the appropriate secondary antibodies conjugated with horseradish peroxidase (Jaxon laboratories). […]

[1] = system: MLKL^−/− HT29 cells expressing untagged MLKL; format: cell-based; conditions: MLKL-/- + MLKL, TNF+911+zVAD, replicate columns
Description: Cell death was assessed by flow cytometric analysis of PI exclusion. […] Cell death was assessed by flow cytometric analysis of PI exclusion. […] Cell death was assessed by flow cytometric analysis of PI exclusion. e N = 4, f N = 3 independent experiments (symbols), EB represent mean ± SD. g Western from MLKL^−/−CASP8^−/− HT29 cells stably expressing the doxycycline-inducible C-terminal fusion protein, MLKL-NanoLuc (MLKL-NLuc) and constitutively expressing the C-terminal fusion protein caspase-8-FKBP^F36V. […] Cell death was assessed using an IncuCyte and Cytotox-Red uptake. N = 3 independent experiments, one representative experiment shown, EB represent mean ± SD.
Degrader compounds or a DMSO vehicle control were added for 5 h, as stated in the Fig. legends. Cells were detached using Trypsin-EDTA (Merck) and resuspended in cell supernatants containing 10 μg/mL propidium iodide (PI). PI exclusion analysis was performed using an LSR II flow cytometer (Becton Dickinson, NJ) with 10,000 single-cell events per sample. Flow cytometry data were analysed using WEASEL version 2.7 software (Frank Battye).

[2] = system: MLKL^−/−CASP8^−/− HT29 cells expressing MLKL-NLuc and caspase-8-FKBP^F36V; conditions: TNF+SM
wild-type HT29 cells = experiment: Necroptosis assay (PI exclusion, flow cytometry), wild-type HT29 cells, TNF+SM+IDN; format: cell-based, human; conditions: sheet S5G
How it was run: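 HT29 cells were pretreated 5 h with 500 nM degrader or DMSO, then stimulated 24 h with TNF (100 ng/mL), Smac mimetic compound A (500 nM–1 µM) and emricasan (IDN, 5 µM). Cell death was scored by flow cytometry as PI uptake (10 μg/mL PI, 10,000 events/sample), N = 3 replicates.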

[3] = target: T3, Halo-EGFP-NanoLuc-FKBP^F36V (H-E-N-F) fusion protein (UniProt P0A3G2+P62942+Q9GV45, A155T/A167V/A172T/A224E/A31E/A60N/A81I/C128F/C176G/D78G/E160K/E257K/F37V/F95D/H272N/I117V/K175M/K195N/K70R/L47V/L54V/L88M/L99Q/M102K/N193R/N227D/P142E/P291S/Q151K/Q38R/Q45L/S2A/S58T/T264A/V71I/Y165I/Y273L/Y87F); format: cell-based; conditions: +dox; for Blank corrected (470-80) luminescence: single well replicates; for Blank corrected Raw Data (470-80): PROTAC 500nM, replicate wells
Target sequence in this assay (Q9GV45 other isoform, or with tags, fused parts or gaps with the stated changes): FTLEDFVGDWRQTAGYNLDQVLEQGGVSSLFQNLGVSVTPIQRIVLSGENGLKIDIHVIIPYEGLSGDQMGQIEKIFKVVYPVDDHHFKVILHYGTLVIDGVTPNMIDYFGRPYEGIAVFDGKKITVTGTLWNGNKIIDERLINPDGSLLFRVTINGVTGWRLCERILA
Target sequence in this assay (P0A3G2 other isoform, or with tags, fused parts or gaps with the stated changes): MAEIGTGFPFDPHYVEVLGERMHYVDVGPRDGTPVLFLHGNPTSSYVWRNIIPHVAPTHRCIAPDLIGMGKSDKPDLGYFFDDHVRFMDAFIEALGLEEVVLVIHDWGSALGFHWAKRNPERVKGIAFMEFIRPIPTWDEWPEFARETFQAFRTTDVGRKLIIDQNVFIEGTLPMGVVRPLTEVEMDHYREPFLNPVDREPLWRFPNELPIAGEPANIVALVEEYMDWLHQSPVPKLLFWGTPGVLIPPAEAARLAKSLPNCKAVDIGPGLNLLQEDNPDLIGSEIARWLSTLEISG
Target sequence in this assay (P62942 whole entry F37V, the tested form may be a part): as the sequence (P62942 whole entry F37V) above

[4] = target: T3, Halo-EGFP-NanoLuc-FKBP^F36V (H-E-N-F) fusion protein; format: cell-based; parameters: expressed in transfected cells; host or cells: immortalized mouse dermal fibroblasts (iMDFs), ubiquitin promoter, constitutive; conditions: 500 nM
Target sequence in this assay (P0A3G2 other isoform, or with tags, fused parts or gaps with the stated changes): as the sequence (P0A3G2 other isoform, or with tags, fused parts or gaps with the stated changes) above
Target sequence in this assay (Q9GV45 other isoform, or with tags, fused parts or gaps with the stated changes): as the sequence (Q9GV45 other isoform, or with tags, fused parts or gaps with the stated changes) above
Target sequence in this assay (P62942 whole entry F37V, the tested form may be a part): as the sequence (P62942 whole entry F37V) above

SMILES: CC[C@H](C(=O)N1CCCC[C@H]1C(=O)O[C@H](CCc1ccc(OC)c(OC)c1)c1ccccc1OCC(=O)NCCCCCCC(=O)N[C@H](C(=O)N1C[C@H](O)C[C@H]1C(=O)N[C@@H](C)c1ccc(-c2scnc2C)cc1)C(C)(C)C)c1cc(OC)c(OC)c(OC)c1 [FV1]
- depletion of caspase-8-FKBP^F36V (caspase-8-FKBP^F36V): could be depleted
- degradation of murine MLKL-FKBP^F36V (murine MLKL-FKBP^F36V): comparable degradation
- TNF+911+zVAD (PI exclusion) ([1]; degrader 3.9nM): 5.8 and 7 and 7.6
- TNF+911+zVAD (PI exclusion) ([1]; degrader 7.8nM): 6.7 and 5.9 and 5.7
- TNF+911+zVAD (PI exclusion) ([1]; degrader 31.25nM): 5.8 and 6 and 5.7
- TNF+911+zVAD (PI exclusion) ([1]; degrader 62.5nM): 6.1 and 6.6 and 5.2
- TNF+911+zVAD (PI exclusion) ([1]; degrader 250nM): 6.3 and 5.6 and 5.3
- TNF+911+zVAD (PI exclusion) ([1]; degrader 500nM): 5.9 and 5.1 and 4.5
- TNF+911+zVAD (PI exclusion) ([1]; degrader 1000nM): 5.8 and 4.9 and 5
- Cytotox-Red uptake (cell death), IncuCyte ([2]; elapsed 0 h): 162.812
- Cytotox-Red uptake (cell death), IncuCyte ([2]; elapsed 0.5 h): 163.75
- Cytotox-Red uptake (cell death), IncuCyte ([2]; elapsed 1 h): 172.188
- Cytotox-Red uptake (cell death), IncuCyte ([2]; elapsed 2 h): 261.562
- Cytotox-Red uptake (cell death), IncuCyte ([2]; elapsed 3 h): 541.625
- Cytotox-Red uptake (cell death), IncuCyte ([2]; elapsed 4 h): 907.75
- Cytotox-Red uptake (cell death), IncuCyte ([2]; elapsed 5 h): 1277
- Cytotox-Red uptake (cell death), IncuCyte ([2]; elapsed 6 h): 1576.88
- Cytotox-Red uptake (cell death), IncuCyte ([2]; elapsed 6.5 h): 1701.5
- Cytotox-Red uptake (cell death), IncuCyte ([2]; elapsed 7 h): 1872.81
- Cytotox-Red uptake (cell death), IncuCyte ([2]; elapsed 7.5 h): 1974.44
- Cytotox-Red uptake (cell death), IncuCyte ([2]; elapsed 8 h): 2103.31
- Cytotox-Red uptake (cell death), IncuCyte ([2]; elapsed 9 h): 2328
- Cytotox-Red uptake (cell death), IncuCyte ([2]; elapsed 9.5 h): 2410.25
- Cytotox-Red uptake (cell death), IncuCyte ([2]; elapsed 10 h): 2505.44
- Cytotox-Red uptake (cell death), IncuCyte ([2]; elapsed 10.5 h): 2578.38
- Cytotox-Red uptake (cell death), IncuCyte ([2]; elapsed 11 h): 2647
- Cytotox-Red uptake (cell death), IncuCyte ([2]; elapsed 12 h): 2777.19
- Cytotox-Red uptake (cell death), IncuCyte ([2]; elapsed 13 h): 2864.25
- Cytotox-Red uptake (cell death), IncuCyte ([2]; elapsed 13.5 h): 3026.81
- Cytotox-Red uptake (cell death), IncuCyte ([2]; elapsed 14 h): 2985.5
- Cytotox-Red uptake (cell death), IncuCyte ([2]; elapsed 14.5 h): 2992.62
- Cytotox-Red uptake (cell death), IncuCyte ([2]; elapsed 15 h): 3009.12
- Cytotox-Red uptake (cell death), IncuCyte ([2]; elapsed 16 h): 3103.38
- Cytotox-Red uptake (cell death), IncuCyte ([2]; elapsed 17 h): 3055.31
- Cytotox-Red uptake (cell death), IncuCyte ([2]; elapsed 18 h): 3042.38
- Cytotox-Red uptake (cell death), IncuCyte ([2]; elapsed 19 h): 3048.56
- Cytotox-Red uptake (cell death), IncuCyte ([2]; elapsed 19.5 h): 3013.69
- viable cells (PI exclusion) (wild-type HT29 cells; TNF+SM+IDN): 9.5 and 6.6 and 6.1
- viable cells (PI exclusion) (wild-type HT29 cells; Unt (no death stimulus)): 76.3 and 74.4 and 69.6
- Blank corrected (470-80) luminescence ([3]; 3.9nM PROTAC): 31936 and 32480 and 32608 and 31981
- Blank corrected (470-80) luminescence ([3]; 7.8nM PROTAC): 24693 and 21134 and 25624 and 20591
- Blank corrected (470-80) luminescence ([3]; 31.25nM PROTAC): 9757 and 8948 and 8891 and 8313
- Blank corrected (470-80) luminescence ([3]; 62.5nM PROTAC): 5245 and 5647 and 5355 and 5575
- Blank corrected (470-80) luminescence ([3]; 250nM PROTAC): 2257 and 3039 and 2286 and 2469
- Blank corrected (470-80) luminescence ([3]; 500nM PROTAC, 5h): 3865 and 3357 and 3449 and 3849
- Blank corrected (470-80) luminescence ([3]; 500nM PROTAC, 8h): 4070 and 3846 and 4184 and 2817
- Blank corrected (470-80) luminescence ([3]; 500nM PROTAC, 24h): 5571 and 3433 and 4739
- Blank corrected (470-80) luminescence ([3]; 500nM PROTAC): 1404 and 1634 and 1510 and 1568
- Blank corrected (470-80) luminescence ([3]; 1uM PROTAC): 1692 and 1683 and 1666 and 1785
- Blank corrected Raw Data (470-80) ([3]; DMSO (control) co-treatment): 1481 and 2747 and 2028
- Blank corrected Raw Data (470-80) ([3]; co-treatment with MG132 (10uM)): 32421 and 46504 and 47437 and 52425
- time up to which degradation was seen, degrader left in the medium ([4]; 5, 24 or 48 h): up to 48 h
- time up to which degradation was maintained, degrader removed at 5 h ([4]; 24 or 48 h after removal): up to 48 h
